The text below walks through data of EP4663632A1, “COMPOUNDS USEFUL FOR THE MODULATION OF THE ACTIVITY OF STING” (Sulis Therapeutics ApS, priority 2024, dated 2025).

Test [1] deals with T1, C-terminal domain (CTD) of human STING (Homo sapiens, UniProt Q86WV6). The experiment in a line: STING binding FP assay III. Set-up: recombinant human STING protein (155-379). The note with it: 10 nM STING (FP assay III according to the text); read-out: STING binding FP assay II, IC50. Here is the method:
(§1) The interaction between molecules and the C-terminal domain (CTD) of human STING was evaluated using a competition binding assay. In this assay, recombinant human STING protein (155-379) and a STING binding fluorescent probe were employed. Upon binding of the probe to STING, the rotation of the fluorescent probe is slowed due to the larger molecular size of the protein-bound complex. As a result, emitted light retains its plane of polarization, leading to an increase in fluorescence polarization. Molecules competing for the probe binding site displace the probe, which leads to rapid randomization of the polarization plane of the emitted light and a subsequent decrease in measured fluorescence polarization signal. Change in polarization was measured, allowing a comparative evaluation of the binding affinities of different compounds to the target protein.
(§2) The assay was performed in 96-well plates (ThermoFisher, cat.# 237108) containing 100µl : 10 µL test compound in 10% DMSO and buffer A (150 mM NaCl, 50 mM HEPES pH 7.5, 1 mM DTT) + 90 µL prepared master mix solution of: 4 nM fluorescein-labelled STING ligand (Probe 1; synthesis described above) in buffer A + 0.055% Tween-20 (v/v) and 35 nM STING in buffer A. Post mixing, plates were agitated at 600rpm and incubated for 20 min at room temperature. Subsequent measurements of the fluorescence polarization signal were made on a BioTek Synergy-H1 plate reader, using a polarization filter; Exc: 485/20 nm, Em: […]) with a gain-setting of 75. IC50 values were determined using a standard non-linear regression four-parameter curve fit in Graphpad Prism.
The procedure for STING binding FP assay III is the same as described for STING binding FP assay I, except for a lower STING concentration. In STING binding FP assay III, a concentration of 10 nM STING in buffer A was used.

For test [2], the target named is T2, STING (Homo sapiens, UniProt Q86WV6). The test can be described thus: Western Blot analysis for STING degradation (DC50) in HFF-1 cells. The format is cell-based. Further details: host or cells: HFF-1 human foreskin fibroblasts. The note with it: 24h; reference protein beta-actin. How it is done:
To assess STING degradation in human foreskin fibroblasts HFF-1 cells (ATCC, SCRC-1041) cells were seeded at a density of 60.000 cells/well in 24-well Nunclon Delta surface treated culture plate in DMEM growth medium (supplemented with 10% FBS, 1% Pen-strep). Cells were incubated over-night at 37°C 5% CO2 to allow adhesion. Next day growth medium was renewed and a 5x concentration of test compounds (2.5% DMSO) diluted in growth medium were added to the appropriate well. The final DMSO concentration were 0.5%. Cell culture plates were returned to the incubator for additional 24h.
For cell lysing for Western Blot analysis cell culture plates were brought to ice, supernatant was removed by aspiration and cells washed 2x in ice-cold DPBS. Cells were lysed in 65 µL of RIPA buffer supplemented with cOmplete ULTRA Tablets protease inhibitor cocktail, PIERCE Phosphatase inhibitor mini tablet, Benzonase and 10mM NaF for 20 min on ice. Lysates were collected, cleared by centrifugation (13000xg for 10 min at 4°C). Samples were either analysed directly or stored at -80°C until analysis.
For Western Blotting, total protein concentration in each lysate was determined using PIERCE Gold BCA Assay kit according to manufactures protocol. 6 µg of total protein was mixed with 2x Laemmli buffer containing DTT, boiled for 5 min at 95°C, cooled on ice and loaded into each well of a 4-20% Criterion TGX gel. Proteins were separated by electrophoresis, by running for 1h at 150V. After separation proteins were blotted onto a PVDF membrane by semi-dry transfer using Trans-Blot turbo system at pre-defined BioRad MIDI protocol; 25V, 1A (fixed) for 30 min. Membranes were blocked for 1h in 5% skim milk in TBS-T20 on a rocker at room temperature followed by washing and exposure to primary antibodies against human STING 1:1000 (Cell Signalling, #13647) or loading controls Vinculin 1:1000 (Cell Signalling, #13901) or beta-Actin 1:10000 (Sigma, A5441) all diluted in 5% BSA in TBS-T20. Membranes were probed over night at 4°C on a rocker. Membranes were washed 3x in TBS-T20 followed by exposure to secondary HRP-conjugated anti-rabbit antibody or HRP-conjugated anti-mouse antibody diluted 1:10000 in 5% skim milk in TBS-T20 as appropriate. Membranes were incubated for 1h at room temperature on a rocker, then washed 3x in TBS-T20.
For generating DC50 values, the intensity of individual bands was measured using imaged and expression levels were calculated as a ratio of STING intensities vs. Reference protein intensities and normalized to DMSO control. The normalized ratios were plotted on a XY curve in GraphPad Prism where DC50 was estimated using a 4-parameter non-linear regression fitting curve.

Test [3] addresses T1, C-terminal domain (CTD) of human STING. The test can be described thus: STING binding FP assay II. Set-up: recombinant human STING protein (155-379). The note with it: 7 nM STING. Here is the method: as §1, §2
The procedure for STING binding FP assay II is the same as described for STING binding FP assay I, except for a lower STING concentration. In STING binding FP assay II, a concentration of 7 nM STING in buffer A was used.

Test [4] has as its target T2, STING. The experiment in a line: Western Blot analysis of inhibition of STING activation in HFF-1 cells. The format is cell-based. Further details: host or cells: HFF-1 human foreskin fibroblasts. The note with it: for STING, TBK1 and IRF1 phosphorylation: 2 h or 5 h. Here is the method: To assess whether S1 STING ligands inhibit STING activation, primary human skin fibroblasts (Figure 5) or HFF-1 cells (Figure 6) were treated with various compounds which comprise only an S1 ligand domain and a Linker domain before undergoing Western Blot analysis as described below.
The cells were lysed and analysed on WB. […] The WB membrane was probed for p-STING, STING, p-IRF3, p-TBK1, and Vinculin.
(In general: A western blot detects proteins with antibodies after separation by electrophoresis.)

Structures are written as SMILES. pIC50: −log10 of the molar value.

T1 sequence (Q86WV6 155-379): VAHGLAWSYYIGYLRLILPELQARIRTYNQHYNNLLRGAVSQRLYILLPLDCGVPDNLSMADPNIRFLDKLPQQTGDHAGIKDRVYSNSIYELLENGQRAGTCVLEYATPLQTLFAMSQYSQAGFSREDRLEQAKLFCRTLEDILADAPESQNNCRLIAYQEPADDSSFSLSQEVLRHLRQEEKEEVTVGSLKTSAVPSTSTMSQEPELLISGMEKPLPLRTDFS
T2 sequence (Q86WV6 whole entry): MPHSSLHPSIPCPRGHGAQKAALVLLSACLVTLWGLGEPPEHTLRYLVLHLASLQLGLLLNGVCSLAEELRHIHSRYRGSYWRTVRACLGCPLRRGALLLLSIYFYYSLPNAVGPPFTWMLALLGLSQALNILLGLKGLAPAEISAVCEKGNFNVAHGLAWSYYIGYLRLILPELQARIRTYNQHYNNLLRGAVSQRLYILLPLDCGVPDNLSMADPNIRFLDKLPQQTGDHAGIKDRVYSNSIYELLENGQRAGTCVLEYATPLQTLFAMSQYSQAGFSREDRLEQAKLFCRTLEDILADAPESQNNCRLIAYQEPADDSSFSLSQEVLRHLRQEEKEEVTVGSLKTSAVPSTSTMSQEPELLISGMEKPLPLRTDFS

For `CCn1nc(C)cc1C(=O)N=c1n(C)c2cc(C(N)=O)ccc2n1CCC(CCn1c(=NC(=O)c2cc(C)nn2CC)n(C)c2cc(C(N)=O)ccc21)OCC(=O)NCCOCCOCCOCCOCCC(=O)NCCOCCOCCOCCNc1cccc2c1C(=O)N(C1CCC(=O)NC1=O)C2=O` (stereo not shown) [Example 11, N-{2-[2-(2-{2-[2-(2,6-Dioxo-3-piperidyl)-1,3-dioxo-4-isoindolinylamino]ethoxy}ethoxy)ethoxy]ethyl}15-{[(3-{5-carbamoyl-2-[(1-ethyl-3-methyl-5-pyrazolyl)carbonylimino]-3-methyl-2,3-dihydro-1H-1,3-benzimidazol-1-yl}-1-(2-{5-carbamoyl-2-[(1-ethyl-3-methyl-5-pyrazolyl)carbonylimino]-3-methyl-2,3-dihydro-1H-1,3-benzimidazol-1-yl}ethyl)propoxy)methyl]carbonylamino}-4,7,10,13-tetraoxapentadecanamide], in test [1], the negative logarithm of the IC50 (pIC50) was 8.28. This compound also yielded a DC50 on STING [2] of under 200 nM.
The like results for `CCn1nc(C)cc1C(=O)N=c1n(C)c2cc(C(N)=O)ccc2n1CCC(CCn1c(=NC(=O)c2cc(C)nn2CC)n(C)c2cc(C(N)=O)ccc21)OCC(=O)NCCOCCOCCOCCOCCC(=O)NCCOCCOCCOCCOCCOCCNc1cccc2c1C(=O)N(C1CCC(=O)NC1=O)C2=O` (stereo not shown) [Example 25] were, in that order, 8.51 and under 200 nM.
For `CCn1nc(C)cc1C(=O)N=c1n(C)c2cc(C(N)=O)ccc2n1CCC(CCn1c(=NC(=O)c2cc(C)nn2CC)n(C)c2cc(C(N)=O)ccc21)OCC(=O)NCCOCCOCCOCCOCCC(=O)NCCOCCNc1cccc2c1C(=O)N(C1CCC(=O)NC1=O)C2=O` (stereo not shown) [Example 6, N-(2-{2-[2-(2,6-Dioxo-3-piperidyl)-1,3-dioxo-4-isoindolinylamino]ethoxy}ethyl)15-{[(3-{5-carbamoyl-2-[(1-ethyl-3-methyl-5-pyrazolyl)carbonylimino]-3-methyl-2,3-dihydro-1H-1 ,3-benzimidazol-1-yl}-1-(2-{5-carbamoyl-2-[(1-ethyl-3-methyl-5-pyrazolyl)carbonylimino]-3-methyl-2,3-dihydro-1H-1 ,3-benzimidazol-1-yl}ethyl)propoxy)methyl]carbonylamino}-4,7,10,13-tetraoxapentadecanamide], in test [1], the pIC50 was 8.59. This compound returned a DC50 at STING [2] of 200 to 1000 nM.
For `CCn1nc(C)cc1C(=O)/N=c1\n(C)c2cc(C(N)=O)ccc2n1CCC(CCn1/c(=N/C(=O)c2cc(C)nn2CC)n(C)c2cc(C(N)=O)ccc21)OCC(=O)NCCOCCOCC(=O)N[C@H](C(=O)N1C[C@H](O)C[C@H]1C(=O)NCc1ccc(-c2scnc2C)cc1)C(C)(C)C` (stereo partly shown) [Example 15], the pIC50 in test [3] was 8.77.
Still for that read-out and setting: for `CCn1nc(C)cc1C(=O)N=c1n(C)c2cc(C(N)=O)ccc2n1CCC(CCn1c(=NC(=O)c2cc(C)nn2CC)n(C)c2cc(C(N)=O)ccc21)OCC(=O)NCCOCCOCCNc1cccc2c1C(=O)N(C1CCC(=O)NC1=O)C2=O` (stereo not shown) [Example 12, 1-(3-{[N-2-(2-{2-[2-(2,6-Dioxo-3-piperidyl)-1,3-dioxo-4-isoindolinylamino]ethoxy}ethoxy)ethylcarbamoyl]methoxy}-5-{5-carbamoyl-2-[(1-ethyl-3-methyl-5-pyrazolyl)carbonylimino]-3-methyl-2,3-dihydro-1H-1,3-benzimidazol-1-yl}pentyl)-2-[(1-ethyl-3-methyl-5-pyrazolyl)carbonylimino]-3-methyl-2,3-dihydro-1H-1 ,3-benzimidazole-5-carboxamide] the value was 8.68.
In the case of `CCn1nc(C)cc1C(=O)N=c1n(C)c2cc(C(N)=O)ccc2n1CCC(CCn1c(=NC(=O)c2cc(C)nn2CC)n(C)c2cc(C(N)=O)ccc21)OCC(=O)N1CCC[C@H]1C(=O)N1CCc2cc(OC)ccc2C1` (stereo partly drawn) [Example A26, 1-[3-(2-{(S)-2-[(6-Methoxy-1,2,3,4-tetrahydro-2-isoquinolyl)carbonyl]-1-pyrrolidinyl}-2-oxoethoxy)-5-{5-carbamoyl-2-[(1-ethyl-3-methyl-5-pyrazolyl)carbonylimino]-3-methyl-2,3-dihydro-1H-1,3-benzimidazol-1-yl}pentyl]-2-[(1-ethyl-3-methyl-5-pyrazolyl)carbonylimino]-3-methyl-2,3-dihydro-1H-1,3-benzimidazole-5-carboxamide], the “STING, TBK1 and IRF1 phosphorylation” value is listed as “lower compared to cells treated with diABZI c3 alone” at STING [4] (5 µM for 15 min prior to 300 nM diABZI) and “lower compared to cells treated with cGAMP alone” at STING [4] (5 µM for 15 min prior to 8 µg/mL cGAMP). The “phosphorylation of STING, IRF1 or TBK1 (agonism)” value at STING [4] (compound as single agent, no activation) is on record as “no phosphorylation of STING, IRF1 or TBK1 was observed”.
At STING [2], `CCn1nc(C)cc1C(=O)N=c1n(C)c2cc(C(N)=O)ccc2n1CCC(CCn1c(=NC(=O)c2cc(C)nn2CC)n(C)c2cc(C(N)=O)ccc21)OCC(=O)NCCOCCOCCOCCOCCOCCNc1cccc2c1C(=O)N(C1CCC(=O)NC1=O)C2=O` (stereo not shown) [Example 3, 1-(3-{[N-2-(2-{2-[2-(2-{2-[2-(2,6-Dioxo-3-piperidyl)-1,3-dioxo-4-isoindolinylamino]ethoxy}ethoxy)ethoxy]ethoxy}ethoxy)ethylcarbamoyl]methoxy}-5-{5-carbamoyl-2-[(1-ethyl-3-methyl-5-pyrazolyl)carbonylimino]-3-methyl-2,3-dihydro-1H-1 ,3-benzimidazol-1-yl}pentyl)-2-[(1-ethyl-3-methyl-5-pyrazolyl)carbonylimino]-3-methyl-2,3-dihydro-1H-1,3-benzimidazole-5-carboxamide] displayed a DC50 of 200 to 1000 nM.
For `CCn1nc(C)cc1C(=O)N=c1n(C)c2cc(C(N)=O)ccc2n1CCC(CCn1c(=NC(=O)c2cc(C)nn2CC)n(C)c2cc(C(N)=O)ccc21)OCC(=O)NCCOCCOCCOCCOCCC(=O)NCCOCCOCCOCCOCCOc1cccc(C(=O)c2csc([C@@H]3CCCN3C(=O)[C@@H](NC(=O)[C@H](C)NC)C3CCCCC3)n2)c1` (stereo partly shown) [Example 17], in test [3], the pIC50 was 8.10.

A word on the pIC50: it is the IC50 on a negative log10 scale, so that one unit is a factor of ten. By DC50 is commonly meant the midpoint of the concentration-degradation curve.
